Test results published in ChEMBL document CHEMBL1134198, “Structure-activity relationships of quinazoline derivatives: dual-acting compounds with inhibitory activities toward both TNF-alpha production and T cell proliferation” (Bioorg Med Chem Lett, 2001).

Legend:
[1] = Inhibitory concentration against growth of LPS stimulated human peripheral blood mononuclear cells; format: functional
[2] = system: T-cell; experiment: Inhibitory concentration against T cell proliferation using concanavalin A stimulated mice spleen cells; format: functional, cell-based; conditions: Mus musculus
[3] = Inhibitory concentration against TNF-alpha production from human peripheral blood mononuclear cells stimulated by LPS; format: functional

Compound	IC50 ([3]; Homo sapiens) [µM]	IC50 [3] [µM]	IC50 ([1]; Homo sapiens) [µM]	IC50 [2] [µM]	IC50 [1] [µM]
AURANOFIN		> 30			> 30
O=[N+]([O-])c1ccc2ncnc(NCCc3ccc(Cl)cc3)c2c1	14.6		> 30	3.2	
Clc1ccc(CCNc2nc(-c3ccccc3)nc3ccccc23)cc1	> 30		> 30	> 10	
Clc1ccc(CCNc2ncnc3ccc(OCc4ccccc4)cc23)cc1	> 30		> 30	> 10	
O=C(O)c1cc(/N=N/c2ccc(S(=O)(=O)Nc3ccccn3)cc2)ccc1O [SULFASALAZINE]	> 30		> 30	> 10	
CCOc1cc2ncnc(NCCc3ccc(Cl)cc3)c2cc1[N+](=O)[O-]	> 30		> 30		
Clc1ccc(CCNc2ncnc3ccccc23)cc1	> 30		> 30	0.5	
O=[N+]([O-])c1cc2c(NCCc3ccc(Cl)cc3)ncnc2cc1N1CCN(c2ccccc2)CC1	> 30		> 30	> 10	
O=[N+]([O-])c1cc2c(NCCc3ccc(Cl)cc3)ncnc2cc1Cl	> 30		> 30	> 10	
COc1cc2ncnc(NCCc3ccc(Cl)cc3)c2cc1OC	> 30		> 30	1.4	
O=[N+]([O-])c1cc2c(NCCc3ccc(Cl)cc3)ncnc2cc1N1CCN(c2ccccn2)CC1	> 30		> 30	> 10	
Clc1ccc(CCNc2nc(Cl)nc3ccccc23)cc1	> 30		> 30	1.2	
CN1CCN(c2cc3ncnc(NCCc4ccc(Cl)cc4)c3cc2[N+](=O)[O-])CC1	1.4		22.1	1.2	
O=[N+]([O-])c1cc2c(NCCc3ccc(Cl)cc3)ncnc2cc1N1CCCNCC1	2.1		9.8	0.9	
O=[N+]([O-])c1cc2c(NCCc3ccc(Cl)cc3)ncnc2cc1N1CCCCC1	> 30		> 30	> 10	
O=[N+]([O-])c1cc2c(NCCc3ccc(Cl)cc3)ncnc2cc1N1CCOCC1	24.8		22.5	8.3	

The next lines start with results.

IC50 ([3]; Homo sapiens) [µM]	IC50 [3] [µM]	Compound	IC50 ([1]; Homo sapiens) [µM]	IC50 [2] [µM]	IC50 [1] [µM]
> 30		CCNc1cc2ncnc(NCCc3ccc(Cl)cc3)c2cc1[N+](=O)[O-]	> 30	> 10	
> 30		Clc1ccc(CCNc2ncnc3ccc(Cl)cc23)cc1	> 30	> 10	
0.5		COc1ccc(C2CNC(=O)C2)cc1OC1CCCC1 (centres undefined) [ROLIPRAM]	> 30	> 10	
> 30		Clc1ccc(CCNc2ncnc3cc(Cl)ccc23)cc1	> 30	> 10	
> 30		Fc1cc2ncnc(NCCc3ccc(Cl)cc3)c2cc1F	> 30		
> 30		Clc1ccc(CCNc2ncnc3ccc(Br)cc23)cc1	> 30	4.8	
> 30		O=[N+]([O-])c1ccc2c(NCCc3ccc(Cl)cc3)ncnc2c1	> 30	5.6	
> 30		O=CNc1ccc2ncnc(NCCc3ccc(Cl)cc3)c2c1	> 30	> 10	
> 30		Clc1ccc(CCNc2ncnc3ccc(NCc4ccccc4)cc23)cc1	> 30	> 10	
> 30		Cc1ccc2ncnc(NCCc3ccc(Cl)cc3)c2c1	> 30	0.8	
> 30		Nc1ccc2c(NCCc3ccc(Cl)cc3)ncnc2c1	> 30	3.4	
0.01		C[C@@H]1C[C@H]2[C@@H]3CCC4=CC(=O)C=C[C@]4(C)[C@@]3(F)[C@@H](O)C[C@]2(C)[C@@]1(O)C(=O)CO [DEXAMETHASONE]	0.04	0.005	
> 30		Oc1ccc2ncnc(NCCc3ccc(Cl)cc3)c2c1	> 30	1.4	
> 30		COc1cc2ncnc(NCCc3ccc(Cl)cc3)c2cc1[N+](=O)[O-]	> 30		
> 30		COc1nc(NCCc2ccc(Cl)cc2)c2ccccc2n1	> 30	> 10	
0.8		O=[N+]([O-])c1cc2c(NCCc3ccc(Cl)cc3)ncnc2cc1N1CCNCC1	12.1	1.1	
> 30		Nc1ccc2ncnc(NCCc3ccc(Cl)cc3)c2c1	> 30	2.6	
> 30		CS(=O)(=O)N1CCN(c2cc3ncnc(NCCc4ccc(Cl)cc4)c3cc2[N+](=O)[O-])CC1	4.5	4.3	
19.4		CN(C)c1cc2ncnc(NCCc3ccc(Cl)cc3)c2cc1[N+](=O)[O-]	27.3	8.6	
> 30		CNc1ccc2ncnc(NCCc3ccc(Cl)cc3)c2c1	> 30	> 10	
> 30		CC(C)(S)[C@@H](N)C(=O)O [PENICILLAMINE]	> 30		
> 30		Cc1nc(NCCc2ccc(Cl)cc2)c2ccccc2n1	> 30	0.2	
